Results published in US20110021458A1, “PHARMACEUTICAL COMPOSITIONS CONTAINING AN INCLUSION COMPLEX FORMED BY DISULFIRAM AND A CYCLODEXTRINE, WHICH CAN BE USED IN THE TREATMENT OF ALCOHOL AND COCAINE DEPENDENCE” (priority 2007, published 2011).

Legend:
[1] = test system: rat skin in the areas of subcutaneous administration; assay: Histopathological study of the subcutaneous administration area; assay type: in vivo; details: for histological findings in rat skin: SC 15 mg/kg of DSF
Experimental: FIGS. 3 to 10: histological cuts of rat skin in the areas of subcutaneous administration (SC), 15 mg/kg of DSF to the form of DSF physiological serum (PS) (A); Complex DSF-CD in SF (B), 25:75 Binary Mixture in SF (C) and control with SF (D). The histological were obtained at different times post-administration of each test. FIG. 3 is up to 8 hours post-administration; FIG. 4, to 24 hours post-administration; FIG. 5, at 48 hours post-administration; FIG. 6 to 72 hours post-administration; FIG. 7, 96 hours post-administration; FIG. 8, to 120 hours post-administration; FIG. 9, to 144 hours post administration and FIG. 10 corresponds to 168 hours post-administration.
The histopathological evaluation was performed for subcutaneous (SC) and intramuscular (IM) injections of DSF free, in the form of CD-DSF Complex and in the form of binary mixture in ratios of 25:75 and 40:60. water, water with 15% glycerin, miglyol and ethyl oleate were used as excipients.
15 mg/kg of free DSF, DSF Complex-CD, Mixed Binary 25:75 and physiological saline (SF) were administered subcutaneously (SC).
Comparative histological study between physiological saline and DSF in its various forms of administration are seen in FIG. 3 to No. 10.

[2] = Pharmacokinetics in rats after SC administration (plasma total DDC); details: rat, in vivo, 15 mg/kg
Experimental: FIG. 19: Effect of subcutaneous administration in rats, 15 mg/kg of DSF to the form of binary mixtures in water 25:75 (A); in miglyol (B) and (C) DSF free water on the concentrations Plasma total DDC in time.
In addition to the histopathological studies in rats pharmacokinetic studies were conducted that measured the plasma concentrations of metabolites of DSF (DDC and MeDDC) after administration SC (FIG. 19) and/or IM (FIG. 20), 15 mg/kg weight of DSF to the form of binary mixtures.
It was quantified the plasma concentration of total DDC that corresponds to the sum of the metabolites and MeDDC DDC, and it was used as a parameter for the analysis of the results shown below.

Histopathological lesions, conclusion ([1]; SC administration): severe Histopathological lesions
desestructuration of the collagen fibers (summary) ([1]; SC, rat skin, 8, 24 and 48 hours from inoculation): mild, moderate to severe
presence of inflammatory cells, superficial vascular plexus hyperemia and hemorrhage in subcutis (summary) ([1]; SC, rat skin, over the controls of the study): moderate to severe
plasma levels of active metabolites at 168 hours post-administration [2]: not detected
SMILES: CCN(CC)C(=S)SSC(=S)N(CC)CC [free DSF, 1-(diethylthiocarbamoyldisulfanyl)-N,N-diethyl-methanethioamide]
histological findings in rat skin ([1]; 8 hours post-administration): severe hyperemia was observed in the deep vascular plexus with bleeding in hypodermis
histological findings in rat skin ([1]; 24 hours post-administration): severe hyperemia was observed in both plexus, abundant presence of inflammatory cells and hemorrhage in hypodermis
histological findings in rat skin ([1]; 48 hours post-administration): severe desestructuration of the collagen fibers, hyperemia of deep vascular plexus and moderate bleeding in hypodermis
histological findings in rat skin ([1]; 72 hours post-administration): moderate hyperemia was observed in both plexus, with moderate presence of inflammatory cells and hemorrhage in hypodermis
histological findings in rat skin ([1]; 96 hours post-administration): moderate hyperemia of deep vascular plexus, with hemorrhage in hypodermis and severe presence of inflammatory cells
histological findings in rat skin ([1]; 120 hours post-administration): moderate hyperemia of deep vascular plexus, with slight presence of inflammatory cells and desestructuration of collagen fibers
histological findings in rat skin ([1]; 144 hours post-administration): moderate hyperemia of deep vascular plexus and low presence of inflammatory cells
histological findings in rat skin ([1]; 168 hours post-administration): moderate hyperemia of deep vascular plexus
Hyperemia of deep vascular plexus (summary) ([1]; SC, rat skin, 8-168 hours): severe in biopsies of 8 and 24 hours and mild to moderate in subsequent checks
